From patent US10202377B2, “3-(1H-benzo[D]imidazol-2-yl)-1H-pyrazolo[3,4-C]pyridine and therapeutic uses thereof” (Samumed, LLC, priority 2014, dated 2019)
pEC50, pIC50: −log10 of the molar value.

Legend:
[1] = test system: primary human fibroblasts derived from IPF patients (LL29 cells); experiment: Inhibition of fibrosis (αSMA staining) in TGF-β1-treated primary human fibroblasts from IPF patients; format: cell-based; conditions: Fibroblast, 96 h, TGF-β1 20 ng/mL, 4 days
Method: The above synthesized compounds were screened using primary human fibroblasts (derived from IPF patients) treated with TGF-β1 to determine their ability to inhibit the fibrotic process.
Compound Screening: Each compound was dissolved in DMSO as a 10 mM stock and used to prepare compound source plates. […] LL29 cells were plated at 1,500 cells/well in 80 μl/well F12 medium supplemented with 1% Fetal Bovine Serum. One hour after addition of the cells, TGF-β1 (Peprotech; 20 ng/mL) was added to the plates to induce fibrosis (ref. 1 and 2 above). Wells treated with TGF-β1 and containing DMSO were used as controls. Cells were incubated at 37° C. and 5% CO2 for 4 days. Following incubation for 4 days, SYTOX green nucleic acid stain (Life Technologies [Thermo Fisher Scientific]) was added to the wells at a final concentration of 1 uM and incubated at room temperature for 30 min. Cells were then fixed using 4% formaldehyde (Electron Microscopy Sciences), washed 3 times with PBS followed by blocking and permeabilization using 3% Bovine Serum Albumin (BSA; Sigma) and 0.3% Triton X-100 (Sigma) in PBS. Cells were then stained with antibody specific to α-smooth muscle actin (aSMA; Abcam) (ref. 1 and 2 above) in 3% Bovine Serum Albumin (BSA; Sigma) and 0.3% Triton X-100 (Sigma) in PBS, and incubated overnight at 4° C. […] Dead or apoptotic cells were excluded from analysis based on positive SYTOX green staining. % of total cells positive for αSMA were counted in each well and normalized to the average of 11 wells treated with TGF-β1 on the same plate using Dotmatics' Studies Software. […] The EC50 values are reported.

[2] = test system: Wnt activity (Sp5-Luc reporter, SW480 colon carcinoma cells); experiment: Sp5-Luc Wnt reporter gene screening assay in SW480 colon carcinoma cells; conditions: Homo sapiens
Method: The screening assay for Wnt activity is described as follows.
SW480 colon carcinoma cells were transduced with a lentiviral vector expressing luciferase with a human Sp5 promoter consisting of a sequence of eight TCF/LEF binding sites. SW480 cells stably expressing the Sp5-Luc reporter gene and a hygromycin resistance gene were selected by treatment with 150 μg/ml of hygromycin for 7 days. These stably transduced SW480 cells were expanded in cell culture and used for all further screening activities. For Sp5-Luc reporter gene assays, the cells were plated at 10,000 cells/well in 96-well plates with growth medium containing 10% fetal calf serum and incubated overnight at 37° C. and 5% CO2. […] Compound transfer from serially diluted source plates to assay plates containing the cells was accomplished using a pintool (Multimek 96, Beckman equipped with V&P Scientific FP1S50H pins) based liquid handling protocol. This protocol used a slotted pin to transfer 50 nl of compound from a source plate well to an assay plate well containing 50 μl of cells in growth medium. […] Control wells received 50 nl of DMSO treatment for normalization and calculating IC50 values. The treated cells were incubated at 37° C. and 5% CO2 for an additional forty-two hours. Following incubation, the growth medium was removed and 50 μl of BrightGlo luminescence reagent (Promega) was added to each well of the 96-well assay plates. The plates were placed on an orbital shaker for 5 min and then luminescence was quantified on the Victor3 (Perkin Elmer) plate reader.

Compound | pEC50 [1] | pIC50 [2]
c1ccc(-c2cccc3[nH]c(-c4n[nH]c5cnc(-c6cncc(CNCC7CCCC7)c6)cc45)nc23)nc1 [Compound 154, 1-Cyclopentyl-N-((5-(3-(4-(pyridin-2-yl)-1H-benzo[d]imidazol-2-yl)-1H-pyrazolo[3,4-c]pyridin-5-yl)pyridin-3-yl)methyl)methanamine] | 8.05 | 6.22
CC(C)Nc1cncc(-c2cc3c(-c4nc5c(-c6ccoc6)cccc5[nH]4)n[nH]c3cn2)c1 [Compound 298, 5-(3-(4-(Furan-3-yl)-1H-benzo[d]imidazol-2-yl)-1H-pyrazolo[3,4-c]pyridin-5-yl)-N-isopropylpyridin-3-amine] | 8.05 | 7.89
Cc1ccc(-c2cccc3[nH]c(-c4n[nH]c5cnc(-c6cncc(NC(=O)C(C)C)c6)cc45)nc23)s1 [Compound 373, N-(5-(3-(4-(5-Methylthiophen-2-yl)-1H-benzo[d]imidazol-2-yl)-1H-pyrazolo[3,4-c]pyridin-5-yl)pyridin-3-yl)isobutyramide] | 7.85 | 7.49
CN(C)c1cncc(-c2cc3c(-c4nc5c(-c6cccc(F)c6)cccc5[nH]4)n[nH]c3cn2)c1 [Compound 7, 5-(3-(4-(3-Fluorophenyl)-1H-benzo[d]imidazol-2-yl)-1H-pyrazolo[3,4-c]pyridin-5-yl)-N,N-dimethylpyridin-3-amine] | 7.77 | 7.37
CS(=O)(=O)NCc1cc(F)cc(-c2cccc3[nH]c(-c4n[nH]c5cnc(-c6cncc(NC(=O)c7ccccc7)c6)cc45)nc23)c1 [Compound 427, N-(5-(3-(4-(3-Fluoro-5-(methylsulfonamidomethyl)phenyl)-1H-benzo[d]imidazol-2-yl)-1H-pyrazolo[3,4-c]pyridin-5-yl)pyridin-3-yl)benzamide] | 8.05 | 6.76
Fc1cccc(-c2cccc3[nH]c(-c4n[nH]c5cnc(-c6ccccn6)cc45)nc23)c1 [Compound 953, 3-(4-(3-Fluorophenyl)-1H-benzo[d]imidazol-2-yl)-5-(pyridin-2-yl)-1H-pyrazolo[3,4-c]pyridine] | 8.05 | 6.60
Cc1ccncc1-c1cc2c(-c3nc4c(-c5ccncc5)cccc4[nH]3)n[nH]c2cn1 [Compound 109, 5-(4-Methylpyridin-3-yl)-3-(4-(pyridin-4-yl)-1H-benzo[d]imidazol-2-yl)-1H-pyrazolo[3,4-c]pyridine] | 7.54 | 7.37
c1ccc(CNCc2cncc(-c3cc4c(-c5nc6c(-c7ccsc7)cccc6[nH]5)n[nH]c4cn3)c2)cc1 [Compound 283, N-Benzyl-1-(5-(3-(4-(thiophen-3-yl)-1H-benzo[d]imidazol-2-yl)-1H-pyrazolo[3,4-c]pyridin-5-yl)pyridin-3-yl)methanamine] | 8.05 | 7.51
CC(C)C(=O)Nc1cncc(-c2cc3c(-c4nc5c(-c6ccoc6)cccc5[nH]4)n[nH]c3cn2)c1 [Compound 295, N-(5-(3-(4-(Furan-3-yl)-1H-benzo[d]imidazol-2-yl)-1H-pyrazolo[3,4-c]pyridin-5-yl)pyridin-3-yl)isobutyramide] | 6.60 | 7.41
CC(C)(C)C(=O)Nc1cncc(-c2cc3c(-c4nc5c(-c6cccs6)cccc5[nH]4)n[nH]c3cn2)c1 [Compound 320, N-(5-(3-(4-(Thiophen-2-yl)-1H-benzo[d]imidazol-2-yl)-1H-pyrazolo[3,4-c]pyridin-5-yl)pyridin-3-yl)pivalamide] | 7.02 | 7.25
Fc1cccc(-c2cccc3[nH]c(-c4n[nH]c5cnc(-c6ccncc6)cc45)nc23)c1 [Compound 952, 3-(4-(3-Fluorophenyl)-1H-benzo[d]imidazol-2-yl)-5-(pyridin-4-yl)-1H-pyrazolo[3,4-c]pyridine] | 5.00 | 7.28
CN(C)Cc1cncc(-c2cc3c(-c4nc5c(-c6cccs6)cccc5[nH]4)n[nH]c3cn2)c1 [Compound 325, N,N-Dimethyl-1-(5-(3-(4-(thiophen-2-yl)-1H-benzo[d]imidazol-2-yl)-1H-pyrazolo[3,4-c]pyridin-5-yl)pyridin-3-yl)methanamine] | 8.05 | 7.57
CN(C)CCNc1cc(F)cc(-c2cccc3[nH]c(-c4n[nH]c5cnc(-c6cncc(CNCC7CCCC7)c6)cc45)nc23)c1 [Compound 466, N^1-(3-(2-(5-(5-(((Cyclopentylmethyl)amino)methyl)pyridin-3-yl)-1H-pyrazolo[3,4-c]pyridin-3-yl)-1H-benzo[d]imidazol-4-yl)-5-fluorophenyl)-N^2,N^2-dimethylethane-1,2-diamine] | 6.51 | 6.33
COc1cncc(-c2cc3c(-c4nc5c(-c6cccc(F)c6)cccc5[nH]4)n[nH]c3cn2)c1 [Compound 948, 3-(4-(3-Fluorophenyl)-1H-benzo[d]imidazol-2-yl)-5-(5-methoxypyridin-3-yl)-1H-pyrazolo[3,4-c]pyridine] | 7.14 | 7.48
Fc1ccc(-c2cccc3[nH]c(-c4n[nH]c5cnc(-c6cncc(CN7CCCC7)c6)cc45)nc23)s1 [Compound 352, 3-(4-(5-Fluorothiophen-2-yl)-1H-benzo[d]imidazol-2-yl)-5-(5-(pyrrolidin-1-ylmethyl)pyridin-3-yl)-1H-pyrazolo[3,4-c]pyridine] | 5.00 | 7.52
c1cc(-c2ccoc2)c2nc(-c3n[nH]c4cnc(-c5cncc(CNCC6CCCC6)c5)cc34)[nH]c2c1 [Compound 310, 1-Cyclopentyl-N-((5-(3-(4-(furan-3-yl)-1H-benzo[d]imidazol-2-yl)-1H-pyrazolo[3,4-c]pyridin-5-yl)pyridin-3-yl)methyl)methanamine] | 7.08 | 7.23
COc1cc(F)cc(-c2cccc3[nH]c(-c4n[nH]c5cnc(-c6cncc(NC(=O)CC(C)C)c6)cc45)nc23)c1 [Compound 1394, N-(5-(3-(4-(3-Fluoro-5-methoxyphenyl)-1H-benzo[d]imidazol-2-yl)-1H-pyrazolo[3,4-c]pyridin-5-yl)pyridin-3-yl)-3-methylbutanamide] | 7.68 | 6.74
O=C(Nc1cncc(-c2cc3c(-c4nc5c(-c6ccccn6)cccc5[nH]4)n[nH]c3cn2)c1)c1ccccc1 [Compound 141, N-(5-(3-(4-(Pyridin-2-yl)-1H-benzo[d]imidazol-2-yl)-1H-pyrazolo[3,4-c]pyridin-5-yl)pyridin-3-yl)benzamide] | 7.41 | 6.39
Oc1cncc(-c2cc3c(-c4nc5c(-c6cccc(F)c6)cccc5[nH]4)n[nH]c3cn2)c1 [Compound 949, 5-(3-(4-(3-Fluorophenyl)-1H-benzo[d]imidazol-2-yl)-1H-pyrazolo[3,4-c]pyridin-5-yl)pyridin-3-ol] | 5.00 | 7.54
Fc1ccc(-c2cccc3[nH]c(-c4n[nH]c5cnc(-c6cncc(CN7CCCC7)c6)cc45)nc23)cc1 [Compound 40, 3-(4-(4-Fluorophenyl)-1H-benzo[d]imidazol-2-yl)-5-(5-(pyrrolidin-1-ylmethyl)pyridin-3-yl)-1H-pyrazolo[3,4-c]pyridine] | 7.11 | 6.54
CCNCc1cncc(-c2cc3c(-c4nc5c(-c6cc(F)cc(NCCN(C)C)c6)cccc5[nH]4)n[nH]c3cn2)c1 [Compound 448, N^1-(3-(2-(5-(5-((Ethylamino)methyl)pyridin-3-yl)-1H-pyrazolo[3,4-c]pyridin-3-yl)-1H-benzo[d]imidazol-4-yl)-5-fluorophenyl)-N^2,N^2-dimethylethane-1,2-diamine] | 8.05 | 6.17
